# Assay results: patent US12187723B2 (BRISTOL-MYERS SQUIBB COMPANY, priority 2019, dated 2025)
# Target: T1, human TLR8 (Homo sapiens, UniProt Q9NR97)
# T1 construct: host or cells: HEK-Blue cells
# T1 sequence (Q9NR97 27-1041): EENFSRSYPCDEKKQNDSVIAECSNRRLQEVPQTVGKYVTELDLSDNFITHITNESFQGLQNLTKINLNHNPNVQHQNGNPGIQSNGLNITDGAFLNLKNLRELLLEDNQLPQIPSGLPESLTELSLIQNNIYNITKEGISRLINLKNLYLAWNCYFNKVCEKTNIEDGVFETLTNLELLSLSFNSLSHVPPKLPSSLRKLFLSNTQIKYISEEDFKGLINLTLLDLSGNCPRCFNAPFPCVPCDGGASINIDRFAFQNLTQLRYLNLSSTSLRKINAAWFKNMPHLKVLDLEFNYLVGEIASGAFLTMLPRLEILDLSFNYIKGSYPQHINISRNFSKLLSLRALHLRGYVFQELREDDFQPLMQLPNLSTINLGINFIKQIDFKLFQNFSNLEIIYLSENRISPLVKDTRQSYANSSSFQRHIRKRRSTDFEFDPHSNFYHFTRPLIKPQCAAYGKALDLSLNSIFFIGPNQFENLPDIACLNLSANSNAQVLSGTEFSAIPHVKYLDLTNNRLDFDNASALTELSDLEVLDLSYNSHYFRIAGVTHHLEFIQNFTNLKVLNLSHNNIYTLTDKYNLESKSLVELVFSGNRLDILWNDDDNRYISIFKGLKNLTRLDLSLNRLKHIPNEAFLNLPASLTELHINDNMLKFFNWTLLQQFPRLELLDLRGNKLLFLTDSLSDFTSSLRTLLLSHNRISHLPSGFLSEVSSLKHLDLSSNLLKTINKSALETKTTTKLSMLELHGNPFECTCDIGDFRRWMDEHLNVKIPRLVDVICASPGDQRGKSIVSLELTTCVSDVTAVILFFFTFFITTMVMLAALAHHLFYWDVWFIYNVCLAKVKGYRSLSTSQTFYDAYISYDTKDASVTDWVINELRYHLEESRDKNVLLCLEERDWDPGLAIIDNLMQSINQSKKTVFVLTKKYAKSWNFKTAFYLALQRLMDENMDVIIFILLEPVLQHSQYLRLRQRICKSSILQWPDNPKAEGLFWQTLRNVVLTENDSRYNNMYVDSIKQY
# Assay: TLR8 inhibition reporter assay (HEK-Blue SEAP)
# Format: cell-based
# Conditions: HEK-Blue cells overexpressing human TLR8, R848 15.9 μM, 22 hour incubation
# How it was run: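 Agonists used: gardiquimod 7.5 μM (TLR7), R848 15.9 μM (TLR8), ODN2006 5 nM (TLR9), added after 30 min room-temperature compound pre-treatment (0.05 nM–50 μM) of receptor-overexpressing HEK-Blue cells. SEAP reporter (NF-κB/AP-1 driven) read after 22 h at 37 °C; inhibition scaled between agonist+DMSO and reference-inhibitor wells.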
row,IC50 [nM],SMILES
1,7.58,"COc1cc(-c2cc3[nH]c(=O)n(C4CCN(C(C)C)CC4)c3cc2C(C)C)cn2ncnc12 [Example 163, 6-isopropyl-1-(1-isopropylpiperidin-4-yl)-5-(8-methoxy-[1,2,4]triazolo[1,5-a]pyridin-6-yl)-1,3-dihydro-2H-benzo[d]imidazol-2-one]"
2,9.67,"COc1cc(-c2cc3[nH]c(=O)n(C4CCN(CC(C)C)CC4)c3cc2C(C)C)cn2ncnc12 [Example 164, 1-(1-isobutylpiperidin-4-yl)-6-isopropyl-5-(8-methoxy-[1,2,4]triazolo[1,5-a]pyridin-6-yl)-1,3-dihydro-2H-benzo[d]imidazol-2-one]"
3,7.03,"CCC(CC)CN1CCC(n2c(=O)[nH]c3cc(-c4cc(OC)c5ncnn5c4)c(C(C)C)cc32)CC1 [Example 165, 1-(1-(2-ethylbutyl)piperidin-4-yl)-6-isopropyl-5-(8-methoxy-[1,2,4]triazolo[1,5-a]pyridin-6-yl)-1,3-dihydro-2H-benzo[d]imidazol-2-one]"
4,0.54,"CCc1cc2c(cc1-c1cc(OC)c3ncnn3c1)[nH]c(=O)n2[C@H]1CC[C@@H](NC2CCOCC2)CC1 [Example 166, 6-ethyl-5-(8-methoxy-[1,2,4]triazolo[1,5-a]pyridin-6-yl)-1-((1s,4s)-4-((tetrahydro-2H-pyran-4-yl)amino)cyclohexyl)-1,3-dihydro-2H-benzo[d]imidazol-2-one]"
5,0.82,"CCc1cc2c(cc1-c1cc(OC)c3ncnn3c1)[nH]c(=O)n2[C@H]1CC[C@@H](NC(C)C)CC1 [Example 167, 6-ethyl-1-((1s,4s)-4-(isopropylamino)cyclohexyl)-5-(8-methoxy-[1,2,4]triazolo[1,5-a]pyridin-6-yl)-1,3-dihydro-2H-benzo[d]imidazol-2-one]"
6,1.53,"CCCN(CCC)[C@H]1CC[C@@H](n2c(=O)[nH]c3cc(-c4cc(OC)c5ncnn5c4)c(CC)cc32)CC1 [Example 168, 1-((1s,4s)-4-(dipropylamino)cyclohexyl)-6-ethyl-5-(8-methoxy-[1,2,4]triazolo[1,5-a]pyridin-6-yl)-1,3-dihydro-2H-benzo[d]imidazol-2-one]"

row,SMILES,IC50 [nM]
1,"COc1cc(-c2cc3[nH]c(=O)n(C4CCN(C5CCOCC5)CC4)c3cc2C(C)C)cn2ncnc12 [Example 158, 6-isopropyl-5-(8-methoxy-[1,2,4]triazolo[1,5-a]pyridin-6-yl)-1-(1-(tetrahydro-2H-pyran-4-yl)piperidin-4-yl)-1,3-dihydro-2H-benzo[d]imidazol-2-one]",16.2
2,"COc1cc(-c2cc3[nH]c(=O)n(C4CCN(CC5CCOCC5)CC4)c3cc2C(C)C)cn2ncnc12 [Example 159, 6-isopropyl-5-(8-methoxy-[1,2,4]triazolo[1,5-a]pyridin-6-yl)-1-(1-((tetrahydro-2H-pyran-4-yl)methyl)piperidin-4-yl)-1,3-dihydro-2H-benzo[d]imidazol-2-one]",4.52
3,"COc1cc(-c2cc3[nH]c(=O)n(C4CCN(CC5CCOC5)CC4)c3cc2C(C)C)cn2ncnc12 (centres unmarked) [Example 160, 6-isopropyl-5-(8-methoxy-[1,2,4]triazolo[1,5-a]pyridin-6-yl)-1-(1-((tetrahydrofuran-3-yl)methyl)piperidin-4-yl)-1,3-dihydro-2H-benzo[d]imidazol-2-one]",5.62
4,"COc1cc(-c2cc3[nH]c(=O)n(C4CCN(CC5CC5)CC4)c3cc2C(C)C)cn2ncnc12 [Example 161, 1-(1-(cyclopropylmethyl)piperidin-4-yl)-6-isopropyl-5-(8-methoxy-[1,2,4]triazolo[1,5-a]pyridin-6-yl)-1,3-dihydro-2H-benzo[d]imidazol-2-one]",6.04
5,"COc1cc(-c2cc3[nH]c(=O)n(C4CCN(C5CCOC5)CC4)c3cc2C(C)C)cn2ncnc12 (centres unmarked) [Example 162, 6-isopropyl-5-(8-methoxy-[1,2,4]triazolo[1,5-a]pyridin-6-yl)-1-(1-(tetrahydrofuran-3-yl)piperidin-4-yl)-1,3-dihydro-2H-benzo[d]imidazol-2-one]",6.56
